According to patent US9771381B2, “Derivatives of 1-amino-2-cyclobutylethylboronic acid” (Millennium Pharmaceuticals, Inc., priority 2008, dated 2017):

Target: T1, human 20S proteasome (Homo sapiens, UniProt P28074)
T1 construct: purchased Boston Biochem
Assay: 20S Proteasome Assay
Assay type: biochemical
Conditions: Ac-WLA-AMC substrate 15 μM, human PA28 activator 12 nM, human 20S proteasome 0.25 nM, 37° C., pH7.4

| SMILES | IC50 [nM] |
| --- | --- |
| O=C(N[C@@H](Cc1ccccc1)C(=O)N[C@@H](CC1CCC1)B(O)O)c1ccc(O)c(CN2CCOCC2)c1 [Compound 3, {(1R)-2-cyclobutyl-1-[((2S)-2-{[4-hydroxy-3-(morpholin-4-ylmethyl)benzoyl]amino}-3-phenylpropanoyl)amino]ethyl}boronic acid] | < 50 |
| O=C(N[C@@H](CC1CCC1)B(O)O)[C@H](Cc1ccccc1)NC(=O)[C@H](CCc1ccccc1)NS(=O)(=O)Cc1ccccc1 [Compound 4, [(1R,4S,7S)-4-benzyl-1-(cyclobutylmethyl)-9,9-dioxido-3,6-dioxo-10-phenyl-7-(2-phenylethyl)-9-thia-2,5,8-triazadec-1-yl]boronic acid] | < 50 |
| CC1(C)[C@@H]2C[C@H]3OB([C@H](CC4CCC4)NC(=O)[C@H](Cc4ccccc4)NC(=O)c4cc(Cl)ccc4Cl)O[C@@]3(C)[C@H]1C2 [Compound 5, N-[(1S)-1-benzyl-2-({(1R)-2-cyclobutyl-1-[(3aS,4S,6S,7aR)-3a,5,5-trimethylhexahydro-4,6-methano-1,3,2-benzodioxaborol-2-yl]ethyl}amino)-2-oxoethyl]-2,5-dichlorobenzamide] | < 50 |
| O=C(N[C@@H](Cc1ccccc1)C(=O)N[C@@H](CC1CCC1)B(O)O)c1cccc(Oc2ccccc2)c1 [Compound 7, [(1R)-2-cyclobutyl-1-({(2S)-2-[(3-phenoxybenzoyl)amino]-3-phenylpropanoyl}amino)ethyl]boronic acid] | < 50 |
| CN1CCOc2cc(S(=O)(=O)N[C@@H](Cc3ccccc3)C(=O)N[C@@H](CC3CCC3)B3O[C@@H]4C[C@@H]5C[C@@H](C5(C)C)[C@]4(C)O3)ccc21 [Compound 8, (2S)-N-{(1R)-2-cyclobutyl-1-[(3aS,4S,6S,7aR)-3a,5,5-trimethylhexahydro-4,6-methano-1,3,2-benzodioxaborol-2-yl]ethyl}-2-{[(4-methyl-3,4-dihydro-2H-1,4-benzoxazin-7-yl)sulfonyl]amino}-3-phenylpropanamide] | < 50 |
| CC1(C)[C@@H]2C[C@H]3OB([C@H](CC4CCC4)NC(=O)[C@H](Cc4ccccc4)NC(=O)c4ccc(O)c(CN5CCOCC5)c4)O[C@@]3(C)[C@H]1C2 [Compound 10, N-[(1S)-1-benzyl-2-({(1R)-2-cyclobutyl-1-[(3aS,4S,6S,7aR)-3a,5,5-trimethylhexahydro-4,6-methano-1,3,2-benzodioxaborol-2-yl]ethyl}amino)-2-oxoethyl]-4-hydroxy-3-(morpholin-4-ylmethyl)benzamide] | 50 to 150 |
| O=C(N[C@@H](CC1CCC1)B(O)O)[C@H](Cc1ccccc1)NS(=O)(=O)c1ccc(Oc2ccccc2)nc1 [Compound 11, {(1R)-2-cyclobutyl-1-[((2S)-2-{[(6-phenoxypyridin-3-yl)sulfonyl]amino}-3-phenylpropanoyl)amino]ethyl}boronic acid] | < 50 |
| CC1(C)[C@@H]2C[C@H]3OB([C@H](CC4CCC4)NC(=O)[C@H](Cc4ccccc4)NS(=O)(=O)c4ccc5ccccc5c4)O[C@@]3(C)[C@H]1C2 [Compound 12, (2S)-N-{(1R)-2-cyclobutyl-1-[(3aS,4S,6S,7aR)-3a,5,5-trimethylhexahydro-4,6-methano-1,3,2-benzodioxaborol-2-yl]ethyl}-2-[(2-naphthylsulfonyl)amino]-3-phenylpropanamide] | < 50 |
| CC1(C)[C@@H]2C[C@H]3OB([C@H](CC4CCC4)NC(=O)[C@H](Cc4ccccc4)NS(=O)(=O)c4cccnc4)O[C@@]3(C)[C@H]1C2 [Compound 15, (2S)-N-{(1R)-2-cyclobutyl-1-[(3aS,4S,6S,7aR)-3a,5,5-trimethylhexahydro-4,6-methano-1,3,2-benzodioxaborol-2-yl]ethyl}-3-phenyl-2-[(pyridin-3-ylsulfonyl)amino]propanamide] | 50 to 150 |
| O=C(N[C@@H](Cc1ccccc1)C(=O)N[C@@H](CC1CCC1)B(O)O)c1ccc2nc(-c3ccccc3)[nH]c2c1 [Compound 18, {(1R)-2-cyclobutyl-1-[((2S)-3-phenyl-2-{[(2-phenyl-1H-benzimidazol-6-yl)carbonyl]amino}propanoyl)amino]ethyl}boronic acid] | < 50 |
| CC1(C)[C@@H]2C[C@H]3OB([C@H](CC4CCC4)NC(=O)[C@H](Cc4ccccc4)NC(=O)c4cccnc4Nc4cccc(C(F)(F)F)c4)O[C@@]3(C)[C@H]1C2 [Compound 19, N-[(1S)-1-benzyl-2-({(1R)-2-cyclobutyl-1-[(3aS,4S,6S,7aR)-3a,5,5-trimethylhexahydro-4,6-methano-1,3,2-benzodioxaborol-2-yl]ethyl}amino)-2-oxoethyl]-2-{[3-(trifluoromethyl)phenyl]amino}nicotinamide] | < 50 |
| CC1(C)[C@@H]2C[C@H]3OB([C@H](CC4CCC4)NC(=O)[C@H](Cc4ccccc4)NC(=O)[C@H](CCc4ccccc4)NS(=O)(=O)Cc4ccccc4)O[C@@]3(C)[C@H]1C2 [Compound 21, (2S)-N-[(1S)-1-benzyl-2-({(1R)-2-cyclobutyl-1-[(3aS,4S,6S,7aR)-3a,5,5-trimethylhexahydro-4,6-methano-1,3,2-benzodioxaborol-2-yl]ethyl}amino)-2-oxoethyl]-2-[(benzylsulfonyl)amino]-4-phenylbutanamide] | < 50 |
| CC(=O)N[C@@H](CCc1ccccc1)C(=O)N[C@@H](Cc1ccccc1)C(=O)N[C@@H](CC1CCC1)B(O)O [Compound 22, {(1R)-1-[((2S)-2-{[(2S)-2-(acetylamino)-4-phenylbutanoyl]amino}-3-phenylpropanoyl)amino]-2-cyclobutylethyl}boronic acid] | < 50 |
| CC1(C)[C@@H]2C[C@H]3OB([C@H](CC4CCC4)NC(=O)[C@H](Cc4ccccc4)NS(=O)(=O)c4ccc(Oc5ccccc5)nc4)O[C@@]3(C)[C@H]1C2 [Compound 24, (2S)-N-{(1R)-2-cyclobutyl-1-[(3aS,4S,6S,7aR)-3a,5,5-trimethylhexahydro-4,6-methano-1,3,2-benzodioxaborol-2-yl]ethyl}-2-{[(6-phenoxypyridin-3-yl)sulfonyl]amino}-3-phenylpropanamide] | < 50 |
| Cn1ccc2c(S(=O)(=O)N[C@@H](Cc3ccccc3)C(=O)N[C@@H](CC3CCC3)B(O)O)cccc21 [Compound 30, {(1R)-2-cyclobutyl-1-[((2S)-2-{[(1-methyl-1H-indol-4-yl)sulfonyl]amino}-3-phenylpropanoyl)amino]ethyl}boronic acid] | < 50 |
| O=C(N[C@@H](CC1CCC1)B(O)O)[C@H](Cc1ccccc1)NS(=O)(=O)c1ccc(N2CCOCC2)nc1 [Compound 31, {(1R)-2-cyclobutyl-1-[((2S)-2-{[(6-morpholin-4-ylpyridin-3-yl)sulfonyl]amino}-3-phenylpropanoyl)amino]ethyl}boronic acid] | < 50 |
| O=C(N[C@@H](CC1CCC1)B(O)O)[C@H](Cc1ccccc1)NS(=O)(=O)c1cccc(Oc2ccc(C(F)(F)F)cn2)c1 [Compound 34, {(1R)-2-cyclobutyl-1-[((2S)-3-phenyl-2-{[(3-{[5-(trifluoromethyl)pyridin-2-yl]oxy}phenyl)sulfonyl]amino}pro-panoyl)amino]ethyl}boronic acid] | < 50 |
| CN1CCOc2ccc(C(=O)N[C@@H](Cc3ccccc3)C(=O)N[C@@H](CC3CCC3)B(O)O)cc21 [Compound 37, {(1R)-2-cyclobutyl-1-[((2S)-2-{[(4-methyl-3,4-dihydro-2H-1,4-benzoxazin-6-yl)carbonyl]amino}-3-phenylpropanoyl)amino]ethyl}boronic acid] | < 50 |

Next, values leading:

| IC50 [nM] | SMILES |
| --- | --- |
| < 50 | CC1(C)[C@@H]2C[C@H]3OB([C@H](CC4CCC4)NC(=O)[C@H](Cc4ccccc4)NC(=O)c4cccnc4Oc4ccccc4)O[C@@]3(C)[C@H]1C2 [Compound 9, N-[(1S)-1-benzyl-2-({(1R)-2-cyclobutyl-1-[(3aS,4S,6S,7aR)-3a,5,5-trimethylhexahydro-4,6-methano-1,3,2-benzodioxaborol-2-yl]ethyl}amino)-2-oxoethyl]-2-phenoxynicotinamide] |
| < 50 | CC1(C)[C@@H]2C[C@H]3OB([C@H](CC4CCC4)NC(=O)[C@H](Cc4ccccc4)NC(=O)c4cccc(Oc5ccccc5)c4)O[C@@]3(C)[C@H]1C2 [Compound 13] |
| < 50 | CC1(C)[C@@H]2C[C@H]3OB([C@H](CC4CCC4)NC(=O)[C@H](Cc4ccccc4)NC(=O)c4ccc5[nH]c(-c6ccccc6)nc5c4)O[C@@]3(C)[C@H]1C2 [Compound 14] |
| < 50 | CC(=O)N[C@@H](CCc1ccccc1)C(=O)N[C@@H](Cc1ccccc1)C(=O)N[C@@H](CC1CCC1)B1O[C@@H]2C[C@@H]3C[C@@H](C3(C)C)[C@]2(C)O1 [Compound 16, (2S)-2-(acetylamino)-N-[(1S)-1-benzyl-2-({(1R)-2-cyclobutyl-1-[(3aS,4S,6S,7aR)-3a,5,5-trimethylhexahydro-4,6-methano-1,3,2-benzodioxaborol-2-yl]ethyl}amino)-2-oxoethyl]-4-phenylbutanamide] |
| < 50 | O=C(N[C@@H](Cc1ccccc1)C(=O)N[C@@H](CC1CCC1)B(O)O)c1cccnc1Nc1cccc(C(F)(F)F)c1 [Compound 23, {(1R)-2-cyclobutyl-1-[((2S)-3-phenyl-2-{[(2-{[3-(trifluoromethyl)phenyl]amino}pyridin-3-yl)carbonyl]amino}propanoyl)amino]ethyl}boronic acid] |
| < 50 | O=C(c1cccc(S(=O)(=O)N[C@@H](Cc2ccccc2)C(=O)N[C@@H](CC2CCC2)B(O)O)c1)c1ccccn1 [Compound 29, ((1R)-2-cyclobutyl-1-{[(2S)-3-phenyl-2-({[3-(pyridin-2-ylcarbonyl)phenyl]sulfonyl}amino)propanoyl]amino}eth-yl)boronic acid] |
| < 50 | O=C1COc2cc(S(=O)(=O)N[C@@H](Cc3ccccc3)C(=O)N[C@@H](CC3CCC3)B(O)O)c(Cl)cc2N1 [Compound 32, {(1R)-1-[((2S)-2-{[(6-chloro-3-oxo-3,4-dihydro-2H-1,4-benzoxazin-7-yl)sulfonyl]amino}-3-phenylpropanoyl)amino]-2-cyclobutylethyl}boronic acid] |
| < 50 | O=C(N[C@@H](CC1CCC1)B(O)O)[C@H](Cc1ccccc1)NS(=O)(=O)c1cc(F)ccc1F [Compound 38, {(1R)-2-cyclobutyl-1-[((2S)-2-{[(2,5-difluorophenyl)sulfonyl]amino}-3-phenylpropanoyl)amino]ethyl}boronic acid] |
